Experimental data from the supplement of paper PMC10307832.

How the values were obtained:
Assay in all cases: relative viability (nuclei count vs DMSO), 5 days (fraction); higher = more cells survive
Wnt-C59 + Luminespib = compound: CC1=NC=CC(=C1)C2=CC=C(C=C2)CC(=O)NC3=CC=C(C=C3)C4=CN=CC=C4 [Wnt-C59] + CCNC(=O)c1noc(-c2cc(C(C)C)c(O)cc2O)c1-c1ccc(CN2CCOCC2)cc1 [Luminespib] (partner 0.01 µM)
Procedure, shortened: (§1)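 A single step with final 0.05% Triton X-100, 1% formaldehyde and 1 ug/ml Hoechst fixed the cells and stained nuclei 5 days after treatment. Lung cancer cell lines in 1536-well plates had been treated by pin tool the day after seeding with one drug alone or a fixed anchor-drug dose plus five library-drug doses (not always all listed) in √10 steps, and nuclei were counted on 4× images. Relative viability is the ratio of nuclei in treated wells to nuclei in vehicle wells, taken as the median of duplicate plates.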

Lapatinib + Luminespib = compound: CS(=O)(=O)CCNCc1ccc(-c2ccc3ncnc(Nc4ccc(OCc5cccc(F)c5)c(Cl)c4)c3c2)o1 [Lapatinib] + CCNC(=O)c1noc(-c2cc(C(C)C)c(O)cc2O)c1-c1ccc(CN2CCOCC2)cc1 [Luminespib] (partner 0.01 µM)
Procedure, shortened: as §1

Lapatinib + Phenformin = compound: CS(=O)(=O)CCNCc1ccc(-c2ccc3ncnc(Nc4ccc(OCc5cccc(F)c5)c(Cl)c4)c3c2)o1 [Lapatinib] + N=C(N)NC(=N)NCCc1ccccc1 [Phenformin] (partner 250 µM)
Procedure, shortened: as §1

Lapatinib + Vorinostat = compound: CS(=O)(=O)CCNCc1ccc(-c2ccc3ncnc(Nc4ccc(OCc5cccc(F)c5)c(Cl)c4)c3c2)o1 [Lapatinib] + O=C(CCCCCCC(=O)Nc1ccccc1)NO [Vorinostat] (partner 1 µM)
Procedure, shortened: as §1

NCI-H1437
relative viability (Wnt-C59 + Luminespib; first compound 0.001 µM): 1.21
relative viability (Wnt-C59 + Luminespib; first compound 0.01 µM): 1.07
relative viability (Wnt-C59 + Luminespib; first compound 0.03162 µM): 1.17
relative viability (Wnt-C59 + Luminespib; first compound 0.1 µM): 1.05
relative viability (Lapatinib + Luminespib; first compound 0.02 µM): 0.961
relative viability (Lapatinib + Luminespib; first compound 0.06325 µM): 1.21
relative viability (Lapatinib + Luminespib; first compound 0.2 µM): 1.16
relative viability (Lapatinib + Luminespib; first compound 0.6325 µM): 1.13
relative viability (Lapatinib + Luminespib; first compound 2 µM): 1.02
relative viability (Lapatinib + Phenformin; first compound 0.02 µM): 0.289
relative viability (Lapatinib + Phenformin; first compound 0.06325 µM): 0.278
relative viability (Lapatinib + Phenformin; first compound 0.2 µM): 0.258
relative viability (Lapatinib + Phenformin; first compound 0.6325 µM): 0.303
relative viability (Lapatinib + Phenformin; first compound 2 µM): 0.253
relative viability (Lapatinib + Vorinostat; first compound 0.02 µM): 0.782
relative viability (Lapatinib + Vorinostat; first compound 0.06325 µM): 0.861
relative viability (Lapatinib + Vorinostat; first compound 0.2 µM): 0.825
relative viability (Lapatinib + Vorinostat; first compound 0.6325 µM): 0.793
relative viability (Lapatinib + Vorinostat; first compound 2 µM): 0.527

BEN
relative viability (Wnt-C59 + Luminespib; first compound 0.001 µM): 0.331
relative viability (Wnt-C59 + Luminespib; first compound 0.01 µM): 0.423
relative viability (Wnt-C59 + Luminespib; first compound 0.03162 µM): 0.457
relative viability (Wnt-C59 + Luminespib; first compound 0.1 µM): 0.598
relative viability (Lapatinib + Luminespib; first compound 0.06325 µM): 0.564
relative viability (Lapatinib + Luminespib; first compound 0.2 µM): 0.229
relative viability (Lapatinib + Luminespib; first compound 0.6325 µM): 0.402
relative viability (Lapatinib + Luminespib; first compound 2 µM): 0.417
relative viability (Lapatinib + Phenformin; first compound 0.06325 µM): 0.301
relative viability (Lapatinib + Phenformin; first compound 0.2 µM): 0.26
relative viability (Lapatinib + Phenformin; first compound 0.6325 µM): 0.241
relative viability (Lapatinib + Phenformin; first compound 2 µM): 0.229
relative viability (Lapatinib + Vorinostat; first compound 0.02 µM): 0.506
relative viability (Lapatinib + Vorinostat; first compound 0.06325 µM): 0.587
relative viability (Lapatinib + Vorinostat; first compound 0.2 µM): 0.586
relative viability (Lapatinib + Vorinostat; first compound 0.6325 µM): 0.559
relative viability (Lapatinib + Vorinostat; first compound 2 µM): 0.51

NCI-H1666
relative viability (Wnt-C59 + Luminespib; first compound 0.001 µM): 1.05
relative viability (Wnt-C59 + Luminespib; first compound 0.01 µM): 1.04
relative viability (Wnt-C59 + Luminespib; first compound 0.03162 µM): 1.04
relative viability (Wnt-C59 + Luminespib; first compound 0.1 µM): 1.03
relative viability (Lapatinib + Luminespib; first compound 0.02 µM): 0.869
relative viability (Lapatinib + Luminespib; first compound 0.06325 µM): 0.955
relative viability (Lapatinib + Luminespib; first compound 0.2 µM): 0.922
relative viability (Lapatinib + Luminespib; first compound 0.6325 µM): 0.725
relative viability (Lapatinib + Luminespib; first compound 2 µM): 0.502
relative viability (Lapatinib + Phenformin; first compound 0.02 µM): 0.555
relative viability (Lapatinib + Phenformin; first compound 0.06325 µM): 0.545
relative viability (Lapatinib + Phenformin; first compound 0.2 µM): 0.592
relative viability (Lapatinib + Phenformin; first compound 0.6325 µM): 0.611
relative viability (Lapatinib + Phenformin; first compound 2 µM): 0.461
relative viability (Lapatinib + Vorinostat; first compound 0.02 µM): 0.951
relative viability (Lapatinib + Vorinostat; first compound 0.06325 µM): 0.978
relative viability (Lapatinib + Vorinostat; first compound 0.2 µM): 1.05
relative viability (Lapatinib + Vorinostat; first compound 0.6325 µM): 0.961
relative viability (Lapatinib + Vorinostat; first compound 2 µM): 0.789

LCLC-103H
relative viability (Wnt-C59 + Luminespib; first compound 0.001 µM): 0.845
relative viability (Wnt-C59 + Luminespib; first compound 0.01 µM): 0.919
relative viability (Wnt-C59 + Luminespib; first compound 0.03162 µM): 0.977
relative viability (Wnt-C59 + Luminespib; first compound 0.1 µM): 0.973
relative viability (Lapatinib + Luminespib; first compound 0.02 µM): 0.954
relative viability (Lapatinib + Luminespib; first compound 0.06325 µM): 0.82
relative viability (Lapatinib + Luminespib; first compound 0.2 µM): 0.877
relative viability (Lapatinib + Luminespib; first compound 0.6325 µM): 0.891
relative viability (Lapatinib + Luminespib; first compound 2 µM): 0.852
relative viability (Lapatinib + Phenformin; first compound 0.02 µM): 0.276
relative viability (Lapatinib + Phenformin; first compound 0.06325 µM): 0.271
relative viability (Lapatinib + Phenformin; first compound 0.2 µM): 0.316
relative viability (Lapatinib + Phenformin; first compound 0.6325 µM): 0.363
relative viability (Lapatinib + Phenformin; first compound 2 µM): 0.382
relative viability (Lapatinib + Vorinostat; first compound 0.02 µM): 0.582
relative viability (Lapatinib + Vorinostat; first compound 0.06325 µM): 0.65
relative viability (Lapatinib + Vorinostat; first compound 0.2 µM): 0.768
relative viability (Lapatinib + Vorinostat; first compound 0.6325 µM): 0.779
relative viability (Lapatinib + Vorinostat; first compound 2 µM): 0.692

NCI-H2009
relative viability (Wnt-C59 + Luminespib; first compound 0.001 µM): 1.04
relative viability (Wnt-C59 + Luminespib; first compound 0.01 µM): 0.976
relative viability (Wnt-C59 + Luminespib; first compound 0.03162 µM): 1.07
relative viability (Wnt-C59 + Luminespib; first compound 0.1 µM): 0.997
relative viability (Lapatinib + Luminespib; first compound 0.02 µM): 0.953
relative viability (Lapatinib + Luminespib; first compound 0.06325 µM): 1.09
relative viability (Lapatinib + Luminespib; first compound 0.2 µM): 1.08
relative viability (Lapatinib + Luminespib; first compound 0.6325 µM): 0.931
relative viability (Lapatinib + Luminespib; first compound 2 µM): 0.984
relative viability (Lapatinib + Phenformin; first compound 0.02 µM): 0.528
relative viability (Lapatinib + Phenformin; first compound 0.06325 µM): 0.484
relative viability (Lapatinib + Phenformin; first compound 0.2 µM): 0.507
relative viability (Lapatinib + Phenformin; first compound 0.6325 µM): 0.513
relative viability (Lapatinib + Phenformin; first compound 2 µM): 0.457
relative viability (Lapatinib + Vorinostat; first compound 0.02 µM): 0.733
relative viability (Lapatinib + Vorinostat; first compound 0.06325 µM): 0.74
relative viability (Lapatinib + Vorinostat; first compound 0.2 µM): 0.894
relative viability (Lapatinib + Vorinostat; first compound 0.6325 µM): 0.693
relative viability (Lapatinib + Vorinostat; first compound 2 µM): 0.679

LOU-NH91
relative viability (Wnt-C59 + Luminespib; first compound 0.001 µM): 0.375
relative viability (Wnt-C59 + Luminespib; first compound 0.01 µM): 0.284
relative viability (Wnt-C59 + Luminespib; first compound 0.03162 µM): 0.298
relative viability (Wnt-C59 + Luminespib; first compound 0.1 µM): 0.348
relative viability (Lapatinib + Luminespib; first compound 0.02 µM): 0.368
relative viability (Lapatinib + Luminespib; first compound 0.06325 µM): 0.305
relative viability (Lapatinib + Luminespib; first compound 0.2 µM): 0.364
relative viability (Lapatinib + Luminespib; first compound 0.6325 µM): 0.346
relative viability (Lapatinib + Luminespib; first compound 2 µM): 0.362
relative viability (Lapatinib + Phenformin; first compound 0.02 µM): 0.463
relative viability (Lapatinib + Phenformin; first compound 0.06325 µM): 0.533
relative viability (Lapatinib + Phenformin; first compound 0.2 µM): 0.479
relative viability (Lapatinib + Phenformin; first compound 0.6325 µM): 0.533
relative viability (Lapatinib + Phenformin; first compound 2 µM): 0.433
relative viability (Lapatinib + Vorinostat; first compound 0.02 µM): 0.398
relative viability (Lapatinib + Vorinostat; first compound 0.06325 µM): 0.675
relative viability (Lapatinib + Vorinostat; first compound 0.2 µM): 0.856
relative viability (Lapatinib + Vorinostat; first compound 0.6325 µM): 0.824
relative viability (Lapatinib + Vorinostat; first compound 2 µM): 0.769

NCI-H441
relative viability (Wnt-C59 + Luminespib; first compound 0.001 µM): 0.428
relative viability (Wnt-C59 + Luminespib; first compound 0.01 µM): 0.247
relative viability (Wnt-C59 + Luminespib; first compound 0.03162 µM): 0.276
relative viability (Wnt-C59 + Luminespib; first compound 0.1 µM): 0.407
relative viability (Lapatinib + Luminespib; first compound 0.06325 µM): 0.299
relative viability (Lapatinib + Luminespib; first compound 0.2 µM): 0.278
relative viability (Lapatinib + Luminespib; first compound 0.6325 µM): 0.282
relative viability (Lapatinib + Luminespib; first compound 2 µM): 0.322
relative viability (Lapatinib + Phenformin; first compound 0.06325 µM): 0.43
relative viability (Lapatinib + Phenformin; first compound 0.2 µM): 0.946
relative viability (Lapatinib + Phenformin; first compound 0.6325 µM): 0.901
relative viability (Lapatinib + Phenformin; first compound 2 µM): 0.873
relative viability (Lapatinib + Vorinostat; first compound 0.02 µM): 0.713
relative viability (Lapatinib + Vorinostat; first compound 0.2 µM): 0.84
relative viability (Lapatinib + Vorinostat; first compound 0.6325 µM): 0.757
relative viability (Lapatinib + Vorinostat; first compound 2 µM): 0.887

NCI-H661
relative viability (Wnt-C59 + Luminespib; first compound 0.001 µM): 0.904
relative viability (Wnt-C59 + Luminespib; first compound 0.01 µM): 0.911
relative viability (Wnt-C59 + Luminespib; first compound 0.03162 µM): 0.972
relative viability (Wnt-C59 + Luminespib; first compound 0.1 µM): 0.912
relative viability (Lapatinib + Luminespib; first compound 0.02 µM): 0.887
relative viability (Lapatinib + Luminespib; first compound 0.06325 µM): 0.925
relative viability (Lapatinib + Luminespib; first compound 0.2 µM): 0.814
relative viability (Lapatinib + Luminespib; first compound 0.6325 µM): 0.807
relative viability (Lapatinib + Luminespib; first compound 2 µM): 0.584
relative viability (Lapatinib + Phenformin; first compound 0.02 µM): 0.273
relative viability (Lapatinib + Phenformin; first compound 0.06325 µM): 0.263
relative viability (Lapatinib + Phenformin; first compound 0.2 µM): 0.273
relative viability (Lapatinib + Phenformin; first compound 0.6325 µM): 0.265
relative viability (Lapatinib + Phenformin; first compound 2 µM): 0.268
relative viability (Lapatinib + Vorinostat; first compound 0.02 µM): 0.758
relative viability (Lapatinib + Vorinostat; first compound 0.06325 µM): 0.783
relative viability (Lapatinib + Vorinostat; first compound 0.2 µM): 0.79
relative viability (Lapatinib + Vorinostat; first compound 0.6325 µM): 0.736
relative viability (Lapatinib + Vorinostat; first compound 2 µM): 0.605

NCI-H1355
relative viability (Wnt-C59 + Luminespib; first compound 0.001 µM): 0.774
relative viability (Wnt-C59 + Luminespib; first compound 0.01 µM): 0.693
relative viability (Wnt-C59 + Luminespib; first compound 0.03162 µM): 0.649
relative viability (Wnt-C59 + Luminespib; first compound 0.1 µM): 0.626
relative viability (Lapatinib + Luminespib; first compound 0.06325 µM): 0.646
relative viability (Lapatinib + Luminespib; first compound 0.2 µM): 0.634
relative viability (Lapatinib + Luminespib; first compound 0.6325 µM): 0.685
relative viability (Lapatinib + Luminespib; first compound 2 µM): 0.441
relative viability (Lapatinib + Phenformin; first compound 0.06325 µM): 0.37
relative viability (Lapatinib + Phenformin; first compound 0.2 µM): 0.455
relative viability (Lapatinib + Phenformin; first compound 0.6325 µM): 0.428
relative viability (Lapatinib + Phenformin; first compound 2 µM): 0.367
relative viability (Lapatinib + Vorinostat; first compound 0.02 µM): 0.574
relative viability (Lapatinib + Vorinostat; first compound 0.06325 µM): 0.541
relative viability (Lapatinib + Vorinostat; first compound 0.2 µM): 0.568
relative viability (Lapatinib + Vorinostat; first compound 0.6325 µM): 0.61
relative viability (Lapatinib + Vorinostat; first compound 2 µM): 0.395
